Measurements published in patent publication US12241083B2, “Macs-based purification of stem cell-derived retinal pigment epithelium” (FUJIFILM Cellular Dynamics, Inc., priority 2015, dated 2025).
“Also recorded” adds a separate entry of the source.

How the values were obtained:
Type in all cases: cell-based, human
iPSC-RPE cells [1] = test: Immunostaining of the iPSC-RPE monolayer (beta catenin, pERM, ZO1, RPE65, p27); settings: for Production of mature RPE cells: conclusion from beta catenin and RPE65 staining; for p27 staining: treated cells vs untreated (untreated: weak p27 in nucleus), higher p27 suggests cell cycle exit; for Beta catenin staining: treated iPSC-RPE cells vs untreated (untreated: beta catenin in cytoplasm)
Text: The mature RPE cells were further developed into functional RPE cell monolayers that function as an intact RPE tissue by continued culture in the RPE-MM with additional small molecules such as primary cilium inducers like PGE2 or aphidicolin. Without being bound by theory, these primary cilium inducers suppress the canonical WNT pathway, induce cell cycle exit in the cells, and induce apical-basal polarization in the RPE monolayer. RPE maturity can alternatively be induced by canonical WNT pathway inhibitors such as IWP2 and endo-IWR1 that also induce cell cycle exit in RPE cells to promote RPE maturation. The cells were cultured in this medium for another 2-3 weeks to obtain mature and functional RPE cell monolayers. Thus, the presently disclosed methods provide mature RPE cells from pluripotent cells that can be consistently reproduced at a large scale for clinical applications.
(§1) For analysis of the mature RPE cells produced from treatment with PGE2, immunostaining of the RPE monolayer was performed to confirm the hexagonal architecture (FIGS. 4A-4C) of tight junctions by ZO1 staining as well as transmission electron microscopy of the iPSC-RPE cells (FIG. 4D).

[2] = test system: iPSC-derived RPE population; test: Inclusion of MEK inhibitor in RDM and RPE-MM during RPE differentiation; settings: 1 μM in RDM and in RPE-MM (approximately Days 42 through 50)
Description: With regard to the methods described in Examples 2 and 3, the inclusion of PD0325901 at a concentration of 1 μM in media for certain windows of time beginning on Day 2 post iPSC plating through the end of the differentiation process, including post-MACS culture, may improve both purity of the RPE population (meaning a decrease in contaminating cells) as well as maturity of the resulting RPE population.

iPSC-RPE cells [3] = test: Transmission electron microscopy of iPSC-RPE cells; settings: PGE2-treated vs untreated iPSC-RPE cells
Description: as §1

iPSC-derived RPE cells = test: Barrier function: transepithelial electrical resistance (TER) and potential (TEP) of the RPE monolayer
Description: To measure the barrier function of the RPE cells generated by the present methods, transepithelial electrical potential (TEP) was measured the ion gradient across the monolayer generated by energy-driven ion pumps that regulate passage across the cells, and transepithelial electrical resistance (TER) measures resistance of substances through the paracellular space mainly through the fine structure of the tight junction structure (FIG. 7A).
Functionality of the mature RPE cells treated with IWP2 or endo-IWR1 was also characterized.
(§2) Next, it was tested whether an increase in the concentration of PGE2 from 50 μM to 100 μM in the RPE-MM+PGE2 medium would improve both purity of the RPE population (i.e., a decrease in contaminating cells) as well as maturity of the resulting RPE population. To determine the maturity and functionality of the 50 μM versus 100 μM PGE2 treated cultures, the barrier function in terms of transepithelial electrical resistance (TER) was measured (FIG. 7F) to compare the resistance of substances through the paracellular space as explained in Example 9. To determine the percentage of pure RPE cells obtained after treatment of the iPSC-derived RPE cultures with 50 μM or 100 μM in the RPE-MM+PGE2 medium, flow cytometry purity assay was performed for RPE-specific markers (FIG. 7G) as described in Example 6.

[4] = test system: iPSC-derived RPE cultures; test: Flow cytometry purity assay for RPE-specific markers
Description: The flow cytometry purity assay was performed to determine the percentage of RPE cells obtained by a sorting method of the present disclosure. An aliquot of the cell suspension collected from the MACS assay (2×10^6 cells in a 5 mL FACS tube per sample) was centrifuged at 400×g for 3 min. The cell pellet was resuspended in 1 mL of a stain (e.g., Live-Dead Red stain) and incubated in the dark at room temperature for 15 min. After incubation, 2 mL of wash buffer was added and the cells were centrifuged at 400×g for 3 min to remove any unbound stain. The cell pellet was resuspended in fixation buffer and incubated in the dark at room temperature for 15 min. After incubation, 2 mL of wash buffer were added and the cells were centrifuged at 400×g for 3 min and the supernatant was decanted. The cell pellet was resuspended in 2 mL of wash buffer to make a 1×10^6 cells/mL suspension and 200 μL of the cell suspension was transferred to a FACS tube. To each tube, 2 mL of perm buffer was added and cells were centrifuged at 400×g for 3 min. Primary antibodies for the RPE-specific markers were diluted in perm buffer and 100 μL diluted antibody solution was added to each tube. After incubation overnight at 4° C. in the dark, the cells were washed in 2 mL Penn Buffer two times. Secondary antibody solution was added to each of the tubes and cells were incubated at room temperature in the dark for 1-2 hours. […]
as §2, with “To determine the percentage of pure RPE cells obtained after treatment of the iPSC-derived RPE cultures with 50 μM or 100 μM in the RPE-MM+PGE2 medium, flow cytometry purity assay was performed for RPE-specific markers (FIG. 7G) as described in Example 6.” left out

[5] = treated iPSC-RPE cells vs untreated (untreated: low in cytoplasm)
[6] = day 75, 100 μM vs 50 μM PGE2 from day 54 to day 75

Row | SMILES | Production of mature RPE cells (iPSC-RPE cells [1]) | p27 staining (iPSC-RPE cells [1]) | Beta catenin staining (iPSC-RPE cells [1]) | RPE65 staining (iPSC-RPE cells [1]; [5]) | Purity and maturity of the RPE population [2] | Apical processes in transmission electron micrographs (iPSC-RPE cells [3]) | ZO1 staining (iPSC-RPE cells [1]; treated and untreated iPSC-RPE cells) | pERM (Ezrin) staining (iPSC-RPE cells [1]; [5]) | Functional response (TER) (iPSC-derived RPE cells; 100 μM vs 50 μM PGE2 in RPE-MM+PGE2 medium, Day 54 to Day 75) | TEP and TER measurements (functionality) (iPSC-derived RPE cells; treated RPE cells versus untreated RPE cells) | Purity and maturity of the RPE population ([4]; PGE2 raised from 50 μM to 100 μM in RPE-MM+PGE2, judged by TER and flow cytometry) | Expression of Best 1 marker (late maturity RPE marker) [4, 6] | Percent expression of Pmel17, Tryp1 and Cralbp (RPE-specific markers) [4, 6]
1 | Cc1ccc2nc(NC(=O)CSc3nc4c(c(=O)n3-c3ccccc3)SCC4)sc2c1 [IWP2, N-(6-Methyl-2-benzothiazolyl)-2-[(3,4,6,7-tetrahydro-4-oxo-3-phenylthieno[3,2-d]pyrimidin-2-yl)thio]-acetamide] | produces mature RPE cells | higher p27 expression in the nucleus | decreased beta catenin; also recorded: beta catenin on cell membrane | increased RPE65; also recorded: high in the cytoplasm |  |  |  |  |  |  |  |  | 
2 | [Cl-].[Li+] [LiCl] |  | weak p27 expression in the nucleus | beta catenin in the nucleus | no staining is seen |  |  |  |  |  |  |  |  | 
3 | O=C(NOC[C@H](O)CO)c1ccc(F)c(F)c1Nc1ccc(I)cc1F [PD0325901, N-[(2R)-2,3-Dihydroxypropoxy]-3,4-difluoro-2-[(2-fluoro-4-iodophenyl)amino]-benzamide] |  |  |  |  | improve both purity and maturity |  |  |  |  |  |  |  | 
4 | CCCCC[C@H](O)/C=C/[C@H]1[C@H](O)CC(=O)[C@@H]1C/C=C\CCCC(=O)O [PGE2, prostaglandin E2] | produces mature RPE cells |  | decreased beta catenin; also recorded: at the membrane | increased RPE65; also recorded: high in the cytoplasm of the treated cells |  | more extensive apical processes | at the tight junctions in the plasma membrane | high in the cytoplasm of the treated cells | progressive increase | increased functionality | promotes both the purity and maturity | much higher | comparable expression
